Test results reported in patent publication US20160176867A1, “MODIFIED BET-PROTEIN-INHIBITING DIHYDROQUINOXALINONES AND DIHYDROPYRIDOPYRAZINONES” (BAYER PHARMA AKTIENGESELLSCHAFT, priority 2013, published 2016).

Tests used:
[1] = biological target: T1, BRD4 bromo domain 2 [BRD4(2)] (Homo sapiens, UniProt O60885); experiment: BRD4/acetylated peptide H4 binding assay (TR-FRET), BRD4 bromo domain 2; settings: inhibition of BRD4(2)/Ac-H4 peptide interaction
T1 construct: N-terminally His6-tagged BRD4(2) (amino acids 357-445); made in house; host or cells: E. coli
Summary of the method: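 IC50 comes from a 4-parameter fit over 0.1 nM–20 μM in duplicate, normalised to DMSO and no-protein controls. TR-FRET (Eu-streptavidin/anti-His-XL665) tracks His-tagged BRD4(2) 357-445 at 100 nM binding Ac-H4 peptide in HEPES pH 7.5 buffer. Incubation was 1 h at 22 °C, then at 4 °C ≥3 h up to overnight.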

[2] = biological target: T2, BRD4 bromo domain 1 [BRD4(1)] (Homo sapiens, UniProt O60885); experiment: BRD4/acetylated peptide H4 binding assay (TR-FRET), BRD4 bromo domain 1; settings: inhibition of BRD4(1)/Ac-H4 peptide interaction
T2 construct: N-terminally His6-tagged BRD4(1) (amino acids 67-152); made in house; host or cells: E. coli
Summary of the method: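 TR-FRET (665/620 nm ratio) measuring displacement of biotinylated tetra-acetylated H4 peptide from His6-BRD4(1) (aa 67-152, E. coli; typically 10 nM) at pH 7.5. Compound (11 concentrations, 0.1 nM–20 μM, duplicates) was preincubated 10 min at 22°C, then 1 h at 22°C and ≥3 h at 4°C; IC50 from 4-parameter fit normalized to DMSO and no-BRD4 controls.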

Compound	IC50 [1] [nM]	IC50 [2] [nM]
C[C@@H]1C(=O)N(C)c2ccc(Nc3cccc(S(=O)(=O)NCCN(C)C)c3)nc2N1C1CCNCC1 [Example 128, N-[2-(dimethylamino)ethyl]-3-{[(3R)-1,3-dimethyl-2-oxo-4-(piperidin-4-yl)-1,2,3,4-tetrahydropyrido[2,3-b]pyrazin-6-yl]amino}-benzenesulphonamide]	137	66
C[C@@H]1C(=O)N(C)c2ccc(Nc3cccc(C(=O)N4CCN(C)CC4)c3)nc2N1C1CCNCC1 [Example 130, (3R)-1,3-dimethyl-6-({3-[(4-methylpiperazin-1-yl)carbonyl]phenyl}amino)-4-(piperidin-4-yl)-3,4-dihydropyrido[2,3-b]pyrazin-2(1H)-one]	178	206
